# From patent US20160264593A1 (priority 2013, published 2016)
# Read-outs that look alike come from different tables or passages of the source.
# Key:
# [1] = Microsomal stability, dog microsomes; assay type: in vitro ADME; settings: relative to verapamil
# U251 human GBM cells = settings: 100 ip together with radiation, daily for 5 days x 3 courses; 6 months plus follow-up
# Method: The mechanism of potentiation is impairment of multiple steps in a DNA-damage repair process and inhibition of exit from mitosis. […] Mice bearing subcutaneous (sc) xenografts of U251 human GBM cells were treated with compound 100 intraperitoneally together with radiation, each given daily for 5 days×3 courses.
# [2] = day 4, cited from earlier work
# [3] = female dogs, day 4, cited from earlier work
# [4] = Microsomal stability, rat microsomes; assay type: in vitro ADME; settings: relative to verapamil
# [5] = Microsomal stability, mouse microsomes; assay type: in vitro ADME; settings: relative to verapamil
# [6] = in vivo
# [7] = Microsomal stability, monkey microsomes; assay type: in vitro ADME; settings: relative to verapamil
# human cancer cell lines = assay: IC50 for a broad spectrum of human cancer cell lines; assay type: cell-based
# [8] = rat, in vivo
# [9] = design: species or system SD rats; settings: male, SD, rat, in vivo, iv, 1 mg/kg
# Method: 105 was dissolved in 4% NaHCO3 in saline for IV administration. The detailed procedure of dosing solution preparation was presented in Appendix I.
# Thirteen (13) animals were placed on the study. The animals in IV arm were free access to food and water. One extra animal was used for blank liver and plasma generation (5 mL per animal). The resulting blank liver and plasma was then applied to the development of bioanalytical method and sample bioanalysis for the entire study.
# The IV injection was conducted via foot dorsal vein. Animals were free access to food and water before dose.
# The animal is restrained manually. Approximately 150 μL of blood/time point is collected into sodium heparin tube via cardiac puncture for terminal bleeding (anesthetized under carbon dioxide). Blood sample will be put on ice and centrifuged to obtain plasma sample (2000 g, 5 min under 4° C.) within 10 minutes.
# The animal will be euthanized with carbon dioxide inhalation. Open abdominal cavity with scissor to expose internal organs. Hold the carcass in an upright position and allow the organs to fall forward. Cut the connective tissues and remove the organs. […]
# The PK parameters were determined by non-compartmental model of non-compartmental analysis tool, Pharsight Phoenix WinNonlin® 6.2 software. […]
smiles,measurement,setting,value
"CN1CCN(C(=O)C2C3CCC(O3)C2C(=O)O)CC1 (stereo not shown) [Compound 100, 3-(4-methylpiperazine-1-carbonyl)-7-oxa-bicyclo[2,2,1]-heptane-2-carboxylic acid]",stability in the presence of microsomes,[1],stable relative to verapamil
same,xenografts eliminated,U251 human GBM cells,60%
same,Cl,"[2]; MALE rats, 0.5 mg/kg",17.85 mL/min/kg
same,Cl,"[2]; MALE rats, 0.75 mg/kg",22.32 mL/min/kg
same,Cl,"[2]; MALE rats, 1.25 mg/kg",15.8 mL/min/kg
same,% AUC* Extrapolated,"[2]; female rats, 0.5 mg/kg",5.6%
same,AUC*,"[2]; female rats, 0.5 mg/kg",479 ng·h/mL
same,AUClast,"[2]; female rats, 0.5 mg/kg",452 ng·h/mL
same,Cl,"[2]; female rats, 0.5 mg/kg",17.42 mL/min/kg
same,Co,"[2]; female rats, 0.5 mg/kg",1497 ng/mL
same,DN AUClast,"[2]; female rats, 0.5 mg/kg",904
same,SC AUClast,"[2]; female rats, 0.5 mg/kg",17.7 ng·h/mL
same,T1/2,"[2]; female rats, 0.5 mg/kg",15 min
same,Vz,"[2]; female rats, 0.5 mg/kg",0.378 L/kg
same,% AUC* Extrapolated,"[2]; female rats, 0.75 mg/kg",27%
same,AUC*,"[2]; female rats, 0.75 mg/kg",949 ng·h/mL
same,AUClast,"[2]; female rats, 0.75 mg/kg",691 ng·h/mL
same,Cl,"[2]; female rats, 0.75 mg/kg",13.2 mL/min/kg
same,Co,"[2]; female rats, 0.75 mg/kg",2347 ng/mL
same,DN AUClast,"[2]; female rats, 0.75 mg/kg",921
same,SC AUClast,"[2]; female rats, 0.75 mg/kg",54.0 ng·h/mL
same,T1/2,"[2]; female rats, 0.75 mg/kg",35.4 min
same,Vz,"[2]; female rats, 0.75 mg/kg",0.677 L/kg
same,% AUC* Extrapolated,"[2]; female rats, 1.25 mg/kg",17%
same,AUC*,"[2]; female rats, 1.25 mg/kg",2853 ng·h/mL
same,AUClast,"[2]; female rats, 1.25 mg/kg",2359 ng·h/mL
same,Cl,"[2]; female rats, 1.25 mg/kg",7.3 mL/min/kg
same,Co,"[2]; female rats, 1.25 mg/kg",3849 ng/mL
same,DN AUClast,"[2]; female rats, 1.25 mg/kg",1887
same,SC AUClast,"[2]; female rats, 1.25 mg/kg",747 ng·h/mL
same,T1/2,"[2]; female rats, 1.25 mg/kg",108 min
same,Vz,"[2]; female rats, 1.25 mg/kg",1.138 L/kg
same,AUClast,[3]; 0.15 mg/kg,335 ng·h/mL
same,Cmax,[3]; 0.15 mg/kg,370 ng/mL
same,Co,[3]; 0.15 mg/kg,566 ng/mL
same,T1/2,[3]; 0.15 mg/kg,28.2 min
same,Tmax,[3]; 0.15 mg/kg,15 min
same,AUClast,[3]; 0.30 mg/kg,1020 ng·h/mL
same,Cmax,[3]; 0.30 mg/kg,731 ng/mL
same,Co,[3]; 0.30 mg/kg,857 ng/mL
same,T1/2,[3]; 0.30 mg/kg,48.6 min
same,Tmax,[3]; 0.30 mg/kg,21 min
same,AUClast,[3]; 0.50 mg/kg,2120 ng·h/mL
same,Cmax,[3]; 0.50 mg/kg,1260 ng/mL
same,Co,[3]; 0.50 mg/kg,1930 ng/mL
same,T1/2,[3]; 0.50 mg/kg,72 min
same,Tmax,[3]; 0.50 mg/kg,15 min
same,stability in the presence of microsomes,[4],stable relative to verapamil
same,stability in the presence of microsomes,[5],stable relative to verapamil
same,passage of the blood brain barrier (BBB) (statement),[6],does not readily pass the blood brain barrier
same,stability in the presence of microsomes,[7],stable relative to verapamil
same,IC50,human cancer cell lines,1 to 3 µM
same,presence in plasma after oral administration (statement),[8],little is present in plasma
"O=C(O)C1C2CCC(O2)C1C(=O)O (stereo not shown) [Endothal, 7-oxabicyclo[2.2.1]heptane-2,3-dicarboxylic acid]",AUC(0-t),[9],3152 ng·h/mL
same,Tmax,[9],15 min
